Assay results published in ChEMBL document CHEMBL1201862, “PubChem BioAssay data set” (2004).
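48-hour exposure; five concentrations; linearly interpolated endpoints. Here, GI50 denotes the concentration required for 50% inhibition of growth.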 Activity calls are given as the source filed them. Rule as the data show it: active = GI50 up to about 1.1 µM and inactive = higher.

How the values were obtained:
Test in all cases: growth of human tumour cells (NCI), 48 h
LXFL 529 = system: LXFL 529
BT-549 = system: BT-549
DMS-114 = system: DMS-114
DMS-273 = system: DMS-273
M19-MEL = system: M19-MEL
XF498 = system: XF498
RXF 631 = system: RXF 631
MDA-MB-435 = system: MDA-MB-435
DLD-1 = system: DLD-1

| SMILES | GI50 (LXFL 529) | GI50 (BT-549) | GI50 (DMS-114) | GI50 (DMS-273) | GI50 (M19-MEL) | GI50 (XF498) | GI50 (RXF 631) | GI50 (MDA-MB-435) | GI50 (DLD-1) |
| --- | --- | --- | --- | --- | --- | --- | --- | --- | --- |
| COc1cc2nncc(SCc3ccc(Cl)c(Cl)c3)c2cc1OC | 17.7 µM (inactive) | > 100 µM (inactive) | > 100 µM (inactive) | > 100 µM (inactive) | > 100 µM (inactive) | 21.5 µM (inactive) | 72.1 µM (inactive) | > 100 µM (inactive) | – |
| COc1cc([C@@H]2c3cc4c(cc3[C@@H](NC(=O)c3ccc(C(C)=O)cc3)C3COC(=O)[C@@H]32)OCO4)cc(OC)c1O (stereo not given in full) | 5.56 µM (inactive) | – | 0.659 µM (active) | 0.0556 µM (active) | 3.01 µM (inactive) | 0.347 µM (active) | 1.24 µM (inactive) | – | 1.4 µM (inactive) |
| COc1ccc(OC(C(=O)O)C(C)C)c2c1CCCC2=O (stereo not given) | > 100 µM (inactive) | – | > 100 µM (inactive) | > 100 µM (inactive) | > 100 µM (inactive) | > 100 µM (inactive) | > 100 µM (inactive) | – | > 100 µM (inactive) |
| CC1=CC(C)(C)N=C2SC(c3ccc(N)cc3)=NN12 | 31.6 µM (inactive) | – | 32.7 µM (inactive) | > 42.9 µM (inactive) | 63.1 µM (inactive) | 50.9 µM (inactive) | 50.7 µM (inactive) | – | 40.1 µM (inactive) |
| CN(C)c1nc(N(C)C)nc(N(C)CN(C)c2ccc(Cl)cc2)n1 | > 100 µM (inactive) | – | > 100 µM (inactive) | > 100 µM (inactive) | > 100 µM (inactive) | > 100 µM (inactive) | – | – | > 100 µM (inactive) |
| O=C(Nc1c(Cl)cc([N+](=O)[O-])cc1Cl)C(=O)C(C1OC(=O)c2ccccc21)[N+](=O)[O-] (stereo not given) | > 100 µM (inactive) | – | 92.3 µM (inactive) | – | > 100 µM (inactive) | > 100 µM (inactive) | > 100 µM (inactive) | – | > 100 µM (inactive) |
| NC12CC3CC(C1)CC(Cl)(C3)C2 | > 100 µM (inactive) | – | > 100 µM (inactive) | > 100 µM (inactive) | > 100 µM (inactive) | > 100 µM (inactive) | > 100 µM (inactive) | – | > 100 µM (inactive) |
| Cc1noc(/N=C2\C=C(Nc3onc(C)c3C)C(=O)c3ccccc32)c1C | 25.5 µM (inactive) | – | 15.3 µM (inactive) | > 100 µM (inactive) | 3.98 µM (inactive) | > 100 µM (inactive) | > 100 µM (inactive) | – | 96.8 µM (inactive) |
| O=C(CCC(=O)C1CCC/C1=N/O)Nc1ccc(Cl)cc1 (stereo not given) | > 100 µM (inactive) | – | – | > 100 µM (inactive) | > 100 µM (inactive) | > 100 µM (inactive) | > 100 µM (inactive) | – | > 100 µM (inactive) |
| CN1Cc2c(nc(-c3ccccc3)c[n+]2[O-])N(C)C1 | > 100 µM (inactive) | – | > 100 µM (inactive) | > 100 µM (inactive) | > 100 µM (inactive) | > 100 µM (inactive) | > 100 µM (inactive) | – | > 100 µM (inactive) |
| COc1ccc2c(c1)[n+]([O-])c(-c1c(Cl)cccc1Cl)c(N)[n+]2[O-] | 39.9 µM (inactive) | – | 34.4 µM (inactive) | 37.5 µM (inactive) | 40.3 µM (inactive) | 24.6 µM (inactive) | 25.3 µM (inactive) | – | 39.4 µM (inactive) |
| O=C1C(c2ccc([N+](=O)[O-])cc2)=C(Cl)C(=O)c2c(O)cccc21 | 9.51 µM (inactive) | 17.1 µM (inactive) | 7.31 µM (inactive) | 28 µM (inactive) | 18.2 µM (inactive) | 10.6 µM (inactive) | – | 17.7 µM (inactive) | 11 µM (inactive) |
| CC(C)=CCCC(C)[C@H]1CC(O)C2(C)C3=CCC4C(C)(C)[C@@H](O)CC[C@]4(C)C3=CC[C@]12C (stereo not given in full) | 1.95 µM (inactive) | – | 10 µM (inactive) | 1.57 µM (inactive) | 4.51 µM (inactive) | 8.34 µM (inactive) | 4.34 µM (inactive) | – | 3.87 µM (inactive) |
